Assay [1] in a line: Beef cattle feed trial (weight gain, feed efficiency, BUN). In kind it is in vivo, Weanling Angus-X steers.
The next assay relates to bovine rumen microbes. Put plainly: Rumen microbial methane production in bovine rumen incubations. To be noted: Yeast 2%, Monensin 10 μM. In kind it is cell-based. On the procedure:
THYM was also found to have a very pronounced inhibition of methane production by rumen microbes.
Bovine rumen microbes were incubated anaerobically for 24 hours at 39° C. with a silage: corn substrate. Bar A indicates basal control incubation, and bars B-G indicate additions. […] Monensin (Rumensin) was used as a positive inhibitory control. The hop acid content of the THYM samples in incubation bars E & F was 100 and 60 μg/ml for alpha and beta acids respectively, similar to the concentrations of alpha and beta acids, 100 μg/ml, added in bars B and C.

What is called inhibition is the drop in the measured response relative to a control, in per cent. Turning to `CC[C@@]1([C@@H]2O[C@@H]([C@H]3O[C@@](O)(CO)[C@H](C)C[C@@H]3C)C[C@@H]2C)CC[C@H]([C@]2(C)CC[C@]3(C[C@H](O)[C@@H](C)[C@@H]([C@@H](C)[C@@H](OC)[C@H](C)C(=O)O)O3)O2)O1` [Monensin, monensin], in assay [1] (9 weeks, monensin 200 mg/animal or 1% THYM in rations), the “Average Daily Gain” value came to 1.65 kg/day. The “Gain to Feed Ratio” value in assay [1] (9 weeks, monensin 200 mg/animal or 1% THYM in rations, M & T vs C p = 0.07) is recorded as 0.38 kg/kg. For the same compound, the “blood urea nitrogen (BUN) level” value in assay [1] (feed trial, FIG. 6) is on record as “significantly lower”. In the assay on bovine rumen microbes (THYM 0.4% (of DM), vs paired control, p < 0.05), testing at 10 µM gave an inhibition of 68%. Moreover, the “Methane Production, Experiment AVG” value in the assay with bovine rumen microbes (THYM 0.4%, N = 3 or 4) was 11152 ppm.

The values are drawn from patent US20240373877A1, “ANIMAL FOOD PRODUCT AND METHOD AND APPARATUS THEREFOR” (priority 2023, published 2024).
